Measured values from US6403589B1, “Method of treating pain with draflazine-analogues” (Janssen Pharmaceutica N.V., priority 1997, dated 2002).
One block for each compound: values may come before it.

What was measured:
[1] = tested on: patients with unstable angina; settings: during the 24 hour observation period; draflazine treated patients with unstable angina; cited from earlier work
[2] = tested on: mice; settings: acute pain stimulus; cited from earlier work
[3] = tested on: rabbits; settings: acute pain stimulus; cited from earlier work
[4] = tested on: dogs; settings: acute pain stimulus; cited from earlier work

SMILES: NC(=O)[C@@H]1CN(CCCCC(c2ccc(F)cc2)c2ccc(F)cc2)CCN1CC(=O)Nc1c(Cl)cc(N)cc1Cl [Compound 13, S-(−)-2-(aminocarbonyl)-N-(4-amino-2,6-dichlorophenyl)-4-[5,5-bis(4-fluorophenyl)-pentyl]-1-piperazineacetamide]
mean duration of chest pain [1]: 75.5 min

SMILES: Cc1cccc(C)c1NC(=O)CN1CCN(CCCC(c2ccc(F)cc2)c2ccc(F)cc2)CC1 [lidoflazine]
reaction time to thermal stimulation [2]: significantly increased
pain treshold to electrical stimulation of incisor teeth [3]: increased
pain treshold to electrical stimulation of canine teeth [4]: not

Now from value to compound:

melting point: 140 °C
SMILES: CNC(=O)C1CN(CC(=O)Nc2c(Cl)cccc2C(C)=O)CCN1CCCC=C(c1ccc(F)cc1)c1ccc(F)cc1.O=C(O)C(=O)O.O=C(O)C(=O)O (racemic) [Compound 18, (±)-N-(2-acetyl-6-chlorophenyl)-4-[5,5-bis(4-fluorophenyl)-4-pentenyl]-3-[(methylamino)carbonyl]-1-piperazineacetamide ethanedioate (1:2)]

melting point: 82.3 °C
SMILES: CNC(=O)C1CN(CC(=O)Nc2c(C)cc(C)cc2C)CCN1CCCC(c1ccc(F)cc1)c1ccc(F)cc1 (stereo not shown) [Compound 1, 4-[4,4-bis(4-fluorophenyl)butyl]-3-[(methylamino)-carbonyl]-N-(2,4,6-trimethylphenyl)-1-piperazineacetamide]

melting point: 90.2 °C
SMILES: CNC(=O)C1CN(CCCC(c2ccc(F)cc2)c2ccc(F)cc2)CCN1CC(=O)Nc1c(C)cc(C)cc1C (stereo not shown) [Compound 2, 4-[4,4-bis(4-fluorophenyl)butyl]-2-[(methylamino)carbonyl]-N-(2,4,6-trimethylphenyl)-1-piperazineacetamide]
